Converted amounts (≈) assume the structure as drawn. A value given as a limit tells only on which side of the number the result lay.

For one experiment, the system named is C. albicans (ATCC 90028). Briefly: Minimum inhibitory concentration, in vitro broth microdilution assay (CLSI M27-A2). Format: cell-based, Candida albicans. The following applies: ATCC 90028, about 50% growth reduction, 2 days at 36° C., range tested 8-0.0078 μg/mL, values given as ranges; for MIC: Candida albicans, ATCC90028, 48 h, read-out: Candida albicans MIC. The essentials:
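Inoculum of 1×10^3 to 1×10^4 CFU/mL in RPMI-1640+MOPS, exposed to 11 two-fold serial compound concentrations at 2 percent final DMSO, per CLSI M27-A2. After 2 days at 36° C, wells scored visually for growth to give MIC; tested in duplicate.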

Another experiment has as its system A. fumigatus. Briefly: A. fumigatus MIC at 100% growth inhibition (CLSI M38-A2). It counts as cell-based, Aspergillus fumigatus. The following applies: 100% growth inhibition, range tested 8-0.0078 μg/mL, values given as ranges; for MIC: Aspergillus fumigatus, read-out: Aspergillus fumigatus MIC. Here is the method:
A. fumigatus MICs were determined at 100% growth inhibition following CLSI guidelines at a concentration range of 8-0.0078 μg/mL (CLSI M38-A2).

Regarding `CN(C)CCn1ncn(-c2ccc(N3CCN(c4ccc(-c5ccc(C(F)(F)[C@](O)(Cn6cnnn6)c6ccc(F)cc6F)nc5)cc4)CC3)cc2)c1=O` [Example 61, (R)-4-(4-(4-(4-(6-(2-(2,4-difluorophenyl)-1,1-difluoro-2-hydroxy-3-(1H-tetrazol-1-yl)propyl)pyridin-3-yl)phenyl)piperazin-1-yl)phenyl)-2-(2-(dimethylamino)ethyl)-2,4-dihydro-3H-1,2,4-triazol-3-one], the minimum inhibitory concentration (MIC) was 0.01 to 0.1 µg/mL (≈ 0.0134 to 0.134 µM) in the experiment on C. albicans (ATCC 90028) and 0.25 to 1 µg/mL (≈ 0.336 to 1.34 µM) in the experiment with A. fumigatus.

Consider `CC(C)c1nc2cc(N3CCN(c4ccc(-c5ccc(C(F)(F)[C@](O)(Cn6cnnn6)c6ccc(F)cc6F)nc5)cc4)CC3)ccc2[nH]1` [Example 69, (R)-2-(2,4-difluorophenyl)-1,1-difluoro-1-(5-(4-(4-(2-isopropyl-1H-benzo [d]imidazol-5-yl)piperazin-1-yl)phenyl)pyridin-2-yl)-3-(1H-tetrazol-1-yl) propan-2-ol], for which the minimum inhibitory concentration (MIC) is 0.01 to 0.1 µg/mL (≈ 0.0149 to 0.149 µM) with C. albicans (ATCC 90028) and above 8 µg/mL in the experiment on A. fumigatus.

With `O=Cc1ccc(N2CCN(c3ccc(-c4ccc(C(F)(F)[C@](O)(Cn5cnnn5)c5ccc(F)cc5F)nc4)cc3)CC2)cn1` [Example 32, (R)-5-(4-(4-(6-(2-(2,4-difluorophenyl)-1,1-difluoro-2-hydroxy-3-(1H-tetrazol-1-yl)propyl)pyridin-3-yl)phenyl)piperazin-1-yl) picolinaldehyde], the values for the minimal inhibitory concentration (MIC) with C. albicans (ATCC 90028) and with A. fumigatus were 0.1 to 1 µg/mL (≈ 0.162 to 1.62 µM) and 0.25 to 1 µg/mL (≈ 0.404 to 1.62 µM), respectively.

Take `N#Cc1ccc2nc(N3CCN(c4ccc(-c5ccc(C(F)(F)[C@](O)(Cn6cnnn6)c6ccc(F)cc6F)nc5)cc4)CC3)sc2c1` [Example 73, (R)-2-(4-(4-(6-(2-(2,4-difluorophenyl)-1,1-difluoro-2-hydroxy-3-(1H-tetrazol-1-yl)propyl)pyridin-3-yl)phenyl)piperazin-1-yl) benzo [d] thiazole-6-carbonitrile]: the minimum inhibitory concentration (MIC) in the experiment with C. albicans (ATCC 90028) is 0.0078 to 0.01 µg/mL (≈ 0.0116 to 0.0149 µM); with A. fumigatus, above 8 µg/mL.

For the compound `OC(CC(F)(F)F)c1ccc(N2CCN(c3ccc(-c4ccc(C(F)(F)[C@](O)(Cn5cnnn5)c5ccc(F)cc5)nc4)cc3)CC2)cn1` (single isomer, unassigned; (+)) [121(+)], in the experiment on C. albicans (ATCC 90028), the “Candida albicans MIC” value was at most 0.0078 to 0.010 µg/mL. In addition, in the experiment with A. fumigatus, the “Aspergillus fumigatus MIC” value is 0.25 to 1.0 µg/mL.

`O[C@@](Cn1cnnn1)(c1ccc(F)cc1F)C(F)(F)c1ccc(-c2ccc(N3CCN(c4ccc5[nH]c(C(F)(F)F)nc5c4)CC3)cc2)cn1` [Example 35, (R)-2-(2,4-difluorophenyl)-1,1-difluoro-3-(1H-tetrazol-1-yl)-1-(5-(4-(4-(2-(trifluoromethyl)-1H-benzo [d]imidazol-5-yl)piperazin-1-yl)phenyl)pyridin-2-yl) propan-2-ol]: the minimal inhibitory concentration (MIC) with C. albicans (ATCC 90028) was in the range of 0.0078 to 0.01 µg/mL (≈ 0.0112 to 0.0143 µM); in the experiment on A. fumigatus, 0.25 to 1 µg/mL (≈ 0.358 to 1.43 µM).

As for `CC(C)(C)C(O)c1ccc(N2CCN(c3ccc(-c4ccc(C(F)(F)[C@](O)(Cn5cnnn5)c5ccc(F)cc5F)nc4)cc3)CC2)cn1` (stereo partly drawn) [Example 50, 1-(5-(4-(4-(6-((R)-2-(2,4-difluorophenyl)-1,1-difluoro-2-hydroxy-3-(1H-tetrazol-1-yl)propyl)pyridin-3-yl)phenyl)piperazin-1-yl)pyridin-2-yl)-2,2-dimethylpropan-1-ol], the MIC in the experiment with C. albicans (ATCC 90028) lay in the range of 0.01 to 0.1 µg/mL (≈ 0.0148 to 0.148 µM); in the experiment with A. fumigatus, 0.25 to 1 µg/mL (≈ 0.369 to 1.48 µM).

As for `O[C@@](Cn1cnnn1)(c1ccc(F)cc1F)C(F)(F)c1ccc(-c2ccc(N3CCN(c4ccc5ncn(Cc6ccccc6)c5c4)CC3)cc2)cn1` [Example 98, (R)-1-(5-(4-(4-(1-benzyl-1H-benzo [d]imidazol-6-yl)piperazin-1-yl)phenyl)pyridin-2-yl)-2-(2,4-difluorophenyl)-1,1-difluoro-3-(1H-tetrazol-1-yl) propan-2-ol], the MIC in the experiment on C. albicans (ATCC 90028) was 0.01 to 0.1 µg/mL (≈ 0.0139 to 0.139 µM); in the experiment on A. fumigatus, above 8 µg/mL.

Regarding `N#Cc1ccc(N2CCN(c3ccc(-c4ccc(C(F)(F)[C@](O)(Cn5cnnn5)c5ccc(F)cc5F)nc4)cc3)C(=O)C2)cc1` [Example 24, (R)-4-(4-(4-(6-(2-(2,4-difluorophenyl)-1,1-difluoro-2-hydroxy-3-(1H-tetrazol-1-yl)propyl)pyridin-3-yl)phenyl)-3-oxopiperazin-1-yl) benzonitrile], the minimal inhibitory concentration (MIC) in the experiment on C. albicans (ATCC 90028) is 0.0078 to 0.01 µg/mL (≈ 0.0124 to 0.0159 µM); in the experiment on A. fumigatus, above 8 µg/mL.

Consider `O[C@@](Cn1cnnn1)(c1ccc(F)cc1F)C(F)(F)c1ccc(-c2ccc(N3CCN(c4ccc5nc(CC(F)(F)F)[nH]c5c4)CC3)cc2)cn1` [Example 77, (R)-2-(2,4-difluorophenyl)-1,1-difluoro-3-(1H-tetrazol-1-yl)-1-(5-(4-(4-(2-(2,2,2-trifluoroethyl)-1H-benzo [d]imidazol-6-yl)piperazin-1-yl)phenyl)pyridin-2-yl) propan-2-ol], for which the MIC is 0.01 to 0.1 µg/mL (≈ 0.0141 to 0.141 µM) in the experiment with C. albicans (ATCC 90028) and 0.25 to 1 µg/mL (≈ 0.351 to 1.41 µM) in the experiment with A. fumigatus.

Take `CC(C)C(O)c1ccc(N2CCN(c3ccc(-c4ccc(C(F)(F)[C@](O)(Cn5cnnn5)c5ccc(F)cc5F)nc4)cc3)CC2)cc1` (stereo partly drawn) [Example 40, 1-(4-(4-(4-(6-((R)-2-(2,4-difluorophenyl)-1,1-difluoro-2-hydroxy-3-(1H-tetrazol-1-yl)propyl)pyridin-3-yl)phenyl)piperazin-1-yl)phenyl)-2-methylpropan-1-ol]: the MIC with C. albicans (ATCC 90028) fell in the range of 0.0078 to 0.01 µg/mL (≈ 0.0118 to 0.0151 µM); in the experiment on A. fumigatus, 0.25 to 1 µg/mL (≈ 0.378 to 1.51 µM).

With `N#Cc1ccc(N2CCN(Cc3ccc(-c4ccc(C(F)(F)[C@](O)(Cn5cnnn5)c5ccc(F)cc5F)nc4)cc3)CC2)cc1` [Example 18, (R)-4-(4-(4-(6-(2-(2,4-difluorophenyl)-1,1-difluoro-2-hydroxy-3-(1H-tetrazol-1-yl)propyl)pyridin-3-yl)benzyl)piperazin-1-yl) benzonitrile], the minimal inhibitory concentration (MIC) was 0.0078 to 0.01 µg/mL (≈ 0.0124 to 0.0159 µM) with C. albicans (ATCC 90028) and above 8 µg/mL in the experiment on A. fumigatus.

`CC[C@@H]([C@H](C)O)n1cnc(-c2ccc(N3CCN(c4ccc(-c5ccc(C(F)(F)[C@](O)(Cn6cnnn6)c6ccc(F)cc6F)nc5)cc4)CC3)cc2)n1` [Example 92, (2S,3S)-3-(3-(4-(4-(4-(6-(2-(2,4-difluorophenyl)-1,1-difluoro-2-hydroxy-3-(1H-tetrazol-1-yl)propyl)pyridin-3-yl)phenyl)piperazin-1-yl)phenyl)-1H-1,2,4-triazol-1-yl) pentan-2-ol]: the values for the minimum inhibitory concentration (MIC) in the experiment on C. albicans (ATCC 90028) and with A. fumigatus were 0.0078 to 0.01 µg/mL (≈ 0.0105 to 0.0135 µM) and 0.25 to 1 µg/mL (≈ 0.337 to 1.35 µM), respectively.

`N#Cc1ccc(N2CCN(c3ccc(-c4ccc(C(F)(F)[C@](O)(Cn5cnnn5)c5ccc(F)cc5F)nc4)cc3)CC2)c(F)c1` [Example 11, (R)-4-(4-(4-(6-(2-(2,4-difluorophenyl)-1,1-difluoro-2-hydroxy-3-(1H-tetrazol-1-yl)propyl)pyridin-3-yl)phenyl)piperazin-1-yl)-3-fluorobenzonitrile]: the figures for the MIC in the experiment with C. albicans (ATCC 90028) and in the experiment on A. fumigatus were 0.0078 to 0.01 µg/mL (≈ 0.0123 to 0.0158 µM) and 0.25 to 1 µg/mL (≈ 0.395 to 1.58 µM), respectively.

Take `CC[C@@H]([C@H](C)O)n1ncn(-c2ccc(N3CCN(c4ccc(-c5ccc(C(F)(F)[C@](O)(Cn6cnnn6)c6ccc(F)cc6F)nc5)cc4)CC3)cn2)c1=O` [Example 82, 4-(5-(4-(4-(6-((R)-2-(2,4-difluorophenyl)-1,1-difluoro-2-hydroxy-3-(1H-tetrazol-1-yl)propyl)pyridin-3-yl)phenyl)piperazin-1-yl)pyridin-2-yl)-2-((2S,3S)-2-hydroxypentan-3-yl)-2,4-dihydro-3H-1,2,4-triazol-3-one]: the “Candida albicans MIC” value with C. albicans (ATCC 90028) is 0.010 to 0.10 µg/mL. In addition, the “Aspergillus fumigatus MIC” value in the experiment on A. fumigatus lay within 0.062 to 0.25 µg/mL.

The values are drawn from patent publication US10464922B2, “Metalloenzyme inhibitor compounds” (NQP 1598 LTD., priority 2015, dated 2019).
